Measurements taken from ChEMBL document CHEMBL5727262, “Tricyclic compound and JAK inhibitor” (2019).

How the values were obtained:
[1] = molecular target: Non-receptor tyrosine-protein kinase TYK2 (Homo sapiens, UniProt P29597); assay: (§1) Enzyme Assay: The JAK inhibitory activities of compounds of the present invention were measured.The enzymes (JAK1, JAK2, JAK3 and Tyk2) were purchased from Carna Biosciences, Inc.As the substrate for the enzymes (hereinafter referred to as the substrate), LANCE Ultra ULight-JAK-1 (Tyr1023) Peptide (manufactured by PerkinElmer Co., Ltd.) was used.As the antibody for detecting phosphorylation of the substrate, LANCE Ultra Europium-anti-phospho tyrosine antibody (PT66) (manufactured by PerkinElmer Co., Ltd.) was used.The other reagents are purchased from the following suppliers.Adenosine triphosphate (ATP): Sigma-Aldrich4-(2-Hydroxyethyl)-1-piperazineethanesulfonic acid (HEPES): DOJINDO LABORATORIESGlycol ether diamine tetraacetic acid (EGTA): DOJINDO LABORATORIESMagnesium chloride (MgCl2): Wako Pure Chemical Industries, Ltd.Dithiothreitol (DTT): Wako Pure Chemical Industries, Ltd.Tween 20: Sigma-AldrichEthylenediaminetetraacetic acid (EDTA): DOJINDO LABORATORIESThe compounds of the present invention, the enzymes (JAK1, JAK2, JAK3 and Tyk2), the substrate and ATP were used for the assays after diluted with the assay buffer.The composition of the assay buffer is given below.HEPES (pH7.5): 50 mMEGTA: 1 mMMgCl2: 10 mMDTT: 2 mMTween 20: 0.01% (wt/wt)Dilutions were made at such concentrations and dispensed on a well plate, which will be described later, in such volumes that the following final concentrations would be achieved on the well plate. The enzyme concentrations and the ATP concentrations in the respective enzyme (JAK1, JAK2, JAK3 and Tyk2) assays were as follows.JAK1 enzyme assay; the enzyme concentration was 0.5 μg/mL, and the ATP concentration was 70 μM.JAK2 enzyme assay; the enzyme concentration was 0.013 μg/mL, and the ATP concentration was 10 μM.JAK3 enzyme assay; the enzyme concentration was 0.020 μg/mL, and the ATP concentration was 3 μM.Tyk2 enzyme assay; the enzyme concentration was 0.25 μg/mL and the ATP concentration was 20 μM.The concentration of the substrate for the enzymes was 25 nM.The concentration of EDTA was 15 mM.The concentration of PT66 was 2 nM.
Chain of Non-receptor tyrosine-protein kinase TYK2 (P29597 whole entry): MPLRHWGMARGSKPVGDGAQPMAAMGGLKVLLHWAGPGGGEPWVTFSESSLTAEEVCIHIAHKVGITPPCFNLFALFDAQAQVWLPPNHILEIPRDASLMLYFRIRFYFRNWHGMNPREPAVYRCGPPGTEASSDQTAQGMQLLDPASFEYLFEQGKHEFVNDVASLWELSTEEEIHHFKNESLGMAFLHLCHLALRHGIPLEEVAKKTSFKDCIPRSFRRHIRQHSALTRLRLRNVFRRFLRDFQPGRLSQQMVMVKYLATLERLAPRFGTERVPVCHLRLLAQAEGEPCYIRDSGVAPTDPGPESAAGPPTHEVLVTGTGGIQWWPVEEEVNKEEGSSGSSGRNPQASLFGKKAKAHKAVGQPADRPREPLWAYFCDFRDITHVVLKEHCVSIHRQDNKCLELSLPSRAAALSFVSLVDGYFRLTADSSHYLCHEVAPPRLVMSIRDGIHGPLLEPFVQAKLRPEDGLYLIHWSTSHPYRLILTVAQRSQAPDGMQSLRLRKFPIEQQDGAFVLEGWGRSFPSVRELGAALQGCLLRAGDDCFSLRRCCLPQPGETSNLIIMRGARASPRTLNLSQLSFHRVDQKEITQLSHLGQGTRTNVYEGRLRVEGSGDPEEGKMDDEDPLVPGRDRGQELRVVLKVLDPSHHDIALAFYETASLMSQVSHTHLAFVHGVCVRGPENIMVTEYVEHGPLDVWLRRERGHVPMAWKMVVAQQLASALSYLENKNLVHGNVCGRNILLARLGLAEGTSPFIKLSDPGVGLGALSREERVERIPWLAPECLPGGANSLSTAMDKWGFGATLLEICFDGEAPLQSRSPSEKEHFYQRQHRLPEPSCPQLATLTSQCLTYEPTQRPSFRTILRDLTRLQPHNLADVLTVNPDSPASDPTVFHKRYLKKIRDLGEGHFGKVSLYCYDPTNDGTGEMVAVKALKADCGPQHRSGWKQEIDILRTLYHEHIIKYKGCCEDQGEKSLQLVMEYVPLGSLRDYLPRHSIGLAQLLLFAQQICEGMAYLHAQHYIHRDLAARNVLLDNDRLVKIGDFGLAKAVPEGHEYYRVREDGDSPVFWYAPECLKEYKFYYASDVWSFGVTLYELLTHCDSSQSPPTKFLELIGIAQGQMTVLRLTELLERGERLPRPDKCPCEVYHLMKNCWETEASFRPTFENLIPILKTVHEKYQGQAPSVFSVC

[2] = molecular target: Tyrosine-protein kinase JAK1 (Homo sapiens, UniProt P23458); assay: as §1
Chain of Tyrosine-protein kinase JAK1 (P23458 whole entry): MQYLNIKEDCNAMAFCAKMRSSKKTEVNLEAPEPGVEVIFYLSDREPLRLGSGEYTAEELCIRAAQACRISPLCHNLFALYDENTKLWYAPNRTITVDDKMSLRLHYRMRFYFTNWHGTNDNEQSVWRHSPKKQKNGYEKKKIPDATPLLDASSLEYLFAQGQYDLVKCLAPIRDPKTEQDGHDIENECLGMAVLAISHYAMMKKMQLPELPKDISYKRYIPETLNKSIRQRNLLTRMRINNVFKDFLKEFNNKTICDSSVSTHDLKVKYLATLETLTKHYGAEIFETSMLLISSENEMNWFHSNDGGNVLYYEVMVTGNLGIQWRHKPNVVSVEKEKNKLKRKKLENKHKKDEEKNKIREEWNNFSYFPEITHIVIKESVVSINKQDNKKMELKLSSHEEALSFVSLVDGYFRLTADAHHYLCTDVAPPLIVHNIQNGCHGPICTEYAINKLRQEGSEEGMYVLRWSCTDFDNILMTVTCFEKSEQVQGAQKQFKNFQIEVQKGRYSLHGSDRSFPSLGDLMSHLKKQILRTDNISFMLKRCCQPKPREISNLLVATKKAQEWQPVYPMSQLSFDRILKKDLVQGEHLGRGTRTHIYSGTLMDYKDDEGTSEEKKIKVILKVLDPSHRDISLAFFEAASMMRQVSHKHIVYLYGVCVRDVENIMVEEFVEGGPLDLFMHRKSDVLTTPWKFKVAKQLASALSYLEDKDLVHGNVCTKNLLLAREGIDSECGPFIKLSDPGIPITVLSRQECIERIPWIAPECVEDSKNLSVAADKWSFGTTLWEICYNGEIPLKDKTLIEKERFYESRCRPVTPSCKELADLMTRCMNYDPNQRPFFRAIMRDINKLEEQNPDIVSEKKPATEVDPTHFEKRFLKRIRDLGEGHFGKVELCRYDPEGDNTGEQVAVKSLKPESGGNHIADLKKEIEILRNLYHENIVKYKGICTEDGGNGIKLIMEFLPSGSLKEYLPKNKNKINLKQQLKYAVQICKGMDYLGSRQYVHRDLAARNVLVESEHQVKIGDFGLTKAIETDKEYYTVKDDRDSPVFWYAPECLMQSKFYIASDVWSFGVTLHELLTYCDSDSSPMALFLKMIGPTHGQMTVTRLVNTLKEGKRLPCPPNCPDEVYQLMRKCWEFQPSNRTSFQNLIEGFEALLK

[3] = molecular target: T1, Tyrosine-protein kinase JAK3 (Homo sapiens, UniProt P52333); assay: as §1
T1 sequence (P52333 whole entry): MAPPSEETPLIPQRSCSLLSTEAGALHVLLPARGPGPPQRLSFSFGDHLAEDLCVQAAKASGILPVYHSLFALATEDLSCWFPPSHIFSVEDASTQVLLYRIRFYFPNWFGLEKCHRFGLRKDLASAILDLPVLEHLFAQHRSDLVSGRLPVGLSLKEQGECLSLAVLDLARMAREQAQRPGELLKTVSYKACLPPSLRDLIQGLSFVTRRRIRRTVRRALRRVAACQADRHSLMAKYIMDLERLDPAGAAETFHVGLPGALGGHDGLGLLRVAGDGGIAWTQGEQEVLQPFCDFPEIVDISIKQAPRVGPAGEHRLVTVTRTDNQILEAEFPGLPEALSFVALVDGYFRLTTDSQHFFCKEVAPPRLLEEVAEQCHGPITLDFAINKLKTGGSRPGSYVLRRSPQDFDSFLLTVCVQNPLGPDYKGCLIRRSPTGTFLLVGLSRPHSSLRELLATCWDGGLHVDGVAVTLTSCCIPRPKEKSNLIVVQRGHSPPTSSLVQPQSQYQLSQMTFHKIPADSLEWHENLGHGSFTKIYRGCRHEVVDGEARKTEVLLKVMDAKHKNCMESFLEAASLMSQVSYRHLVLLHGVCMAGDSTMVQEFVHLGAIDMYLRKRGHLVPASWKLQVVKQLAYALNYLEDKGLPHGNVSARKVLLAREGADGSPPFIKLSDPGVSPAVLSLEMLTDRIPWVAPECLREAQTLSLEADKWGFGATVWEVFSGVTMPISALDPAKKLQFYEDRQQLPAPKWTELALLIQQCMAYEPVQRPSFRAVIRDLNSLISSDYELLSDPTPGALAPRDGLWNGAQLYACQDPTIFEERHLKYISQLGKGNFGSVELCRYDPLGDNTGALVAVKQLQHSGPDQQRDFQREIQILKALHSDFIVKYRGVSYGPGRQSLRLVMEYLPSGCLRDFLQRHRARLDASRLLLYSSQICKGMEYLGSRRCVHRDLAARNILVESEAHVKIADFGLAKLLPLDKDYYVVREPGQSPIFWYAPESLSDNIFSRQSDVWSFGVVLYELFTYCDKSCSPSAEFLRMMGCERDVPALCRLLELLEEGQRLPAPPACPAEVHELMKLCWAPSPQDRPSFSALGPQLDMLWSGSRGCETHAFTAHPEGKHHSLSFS

[4] = molecular target: Tyrosine-protein kinase JAK2 (Homo sapiens, UniProt O60674); assay: as §1, with “plate.” for “plate. The enzyme concentrations and the ATP concentrations in the respective enzyme (JAK1, JAK2, JAK3 and Tyk2) assays were as follows.JAK1 enzyme assay; the enzyme concentration was 0.5 μg/mL, and the ATP concentration was 70 μM.JAK2 enzyme assay; the enzyme concentration was 0.013 μg/mL, and the ATP concentration was 10 μM.JAK3 enzyme assay; the enzyme concentration was 0.020 μg/mL, and the ATP concentration was 3 μM.Tyk2 enzyme assay; the enzyme concentration was 0.25 μg/mL and the ATP concentration was 20 μM.The concentration of the substrate for the enzymes was 25 nM.The concentration of EDTA was 15 mM.The concentration of PT66 was 2 nM.”
Chain of Tyrosine-protein kinase JAK2 (O60674 whole entry): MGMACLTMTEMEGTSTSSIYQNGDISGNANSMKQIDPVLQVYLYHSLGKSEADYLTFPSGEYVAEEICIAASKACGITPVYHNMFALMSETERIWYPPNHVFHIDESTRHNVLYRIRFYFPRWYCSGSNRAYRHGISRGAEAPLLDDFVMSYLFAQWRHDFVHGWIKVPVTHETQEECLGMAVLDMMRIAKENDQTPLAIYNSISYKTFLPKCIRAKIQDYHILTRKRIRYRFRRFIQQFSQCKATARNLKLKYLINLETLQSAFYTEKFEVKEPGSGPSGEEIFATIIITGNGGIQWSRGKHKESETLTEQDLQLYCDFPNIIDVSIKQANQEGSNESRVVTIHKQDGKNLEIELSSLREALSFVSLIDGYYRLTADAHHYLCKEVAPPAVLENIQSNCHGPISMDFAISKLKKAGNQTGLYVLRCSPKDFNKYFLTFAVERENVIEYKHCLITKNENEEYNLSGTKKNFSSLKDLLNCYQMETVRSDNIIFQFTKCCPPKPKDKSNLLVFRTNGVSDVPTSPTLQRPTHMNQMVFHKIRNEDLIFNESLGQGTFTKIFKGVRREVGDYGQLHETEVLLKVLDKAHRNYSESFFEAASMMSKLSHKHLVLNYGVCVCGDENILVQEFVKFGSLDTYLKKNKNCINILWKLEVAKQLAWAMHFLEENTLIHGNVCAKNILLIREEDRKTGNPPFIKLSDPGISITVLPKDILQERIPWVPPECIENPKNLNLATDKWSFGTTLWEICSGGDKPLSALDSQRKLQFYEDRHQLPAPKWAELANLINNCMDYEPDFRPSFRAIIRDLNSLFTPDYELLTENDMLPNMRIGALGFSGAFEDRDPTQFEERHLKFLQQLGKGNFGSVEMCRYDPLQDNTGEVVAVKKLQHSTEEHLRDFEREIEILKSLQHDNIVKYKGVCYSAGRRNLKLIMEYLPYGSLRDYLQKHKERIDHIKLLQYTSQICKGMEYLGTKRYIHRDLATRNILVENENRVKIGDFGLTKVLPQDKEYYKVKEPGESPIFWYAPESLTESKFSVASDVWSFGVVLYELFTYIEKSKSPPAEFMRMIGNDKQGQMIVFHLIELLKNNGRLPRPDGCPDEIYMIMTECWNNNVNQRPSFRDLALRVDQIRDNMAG

Compound	IC50 [1]	IC50 [2]	IC50 [3]	IC50 [4]
N#CC[C@@H](NCC1CCC(N2C=CC(=O)C3C=Nc4[nH]ccc4C32)CC1)C(F)(F)F (stereo partly drawn)	18 nM	1.7 nM	10 nM	5.1 nM
O=C1C=CN(C2CCC(COCC(F)(F)F)CC2)C2c3cc[nH]c3N=CC12 (stereo not drawn)	10 nM	0.59 nM	2.7 nM	
O=C1NC(=O)[C@@H](C2CCC(COCCC(F)(F)F)CC2)C2c3cc[nH]c3N=CC12 (stereo partly drawn)	26 nM	0.35 nM	2.9 nM	1.5 nM
Cc1cnn(CC2CCC(N3C=CC(=O)C4C=Nc5[nH]ccc5C43)CC2)c1 (stereo not drawn)	39 nM	0.41 nM	7.1 nM	1.9 nM
O=C1C=CN(C2CCC(COCCC(F)(F)F)CC2)C2c3cc[nH]c3N=CC12 (stereo not drawn)	19 nM	0.68 nM	2.5 nM	1.6 nM
N#CC[C@H](OCC1CCC(N2C=CC(=O)C3C=Nc4[nH]ccc4C32)CC1)C(F)(F)F (stereo partly drawn)	11 nM	0.74 nM	5.1 nM	2 nM
